We go through one molecule from patent publication US8017786B2, “Substituted β-phenyl-α-hydroxy-propanoic acid, synthesis method and use thereof” (Northwest University, priority 2006, dated 2011).

Holding throughout (type): in vivo, rat
The subject of one test is Bcl-2. Nature of the test: Immunohistochemistry protein expression in I/R myocardial tissue: Bcl-2. The note with it: for Bcl-2 protein expression, OD value: 5 days, ischemia 30 min, reperfusion 2 h. How it is done: (§1) 52 SD rats having a body weight of 220±20 g were randomly divided into model control group, salviannic acid injection group (in 1 mL/kg), and group of bornyl β-(3,4-dihydroxylphenyl)-α-hydroxylpropionate ester at a small, middle and large dose (ip 5, 15, 35 mg/kg). The rats of the normal group and the model control group were ip administered with equal-volume of physiologic saline. The rats of all groups were administered for consecutive 5 days. When the rats were administered for the last time, they were simultaneously anesthetized with 1.5% pentobarbital sodium (ip 45 mg/kg), then a catheter was inserted into the right carotid artery, and connected via a transducer to an eight-channeled physiological recorder. Tracheal cannula was performed, and the ventilation rate was maintained at 60 times/min. The chest was opened, a 6/0 suture was used to form a loop at a site 1˜2 mm from the root of the anterior descending coronary artery, and a plastic pipe was introduced through the loop, then the loop was tightened up. The change of electrocardiogram was observed. An increase or decrease of ST indicated the success of ligation. The color of the myocardial tissue below the ligation suture became darker. 30 minutes later, the plastic pipe was pulled out to allow coronary artery blood flowing again and cause hyperemia of local tissue during reperfusion. For the groups subjected to ischemia for 30 min and reperfusion for 30 min, the myocardial infarction areas were recorded before the test, after ischemia for 1 min and 30 min, and after reperfusion for 30 min; for the groups subjected to ischemia for 30 min and reperfusion for 2 h, cardiac tissue samples were taken and fixed using 10% formalin, embedded with paraffin, serially sliced into sections with a thickness of 4 μm, and separately subjected to immunohistochemistry tests; the rats of the sham operation group were subjected only to the introduction of suture but their coronary arteries were not ligated.
(§2) Standard immunohistochemistry ABC and SP methods were employed for staining. Bax: anti-rabbit polyclonal antibody (Santa CruzBio. Inc.) at a dilution of 1:200; […]: anti-rabbit polyclonal antibody (TBD Tianjin Biotechnological Center). At a dilution of […]; caspase-3: anti-rabbit polyclonal antibody (Normarkers Fromont, Calif.), at a dilution of 1:200; MMP-2: anti-murine monoclonal antibody (NormarkersFromont, Calif.) at a dilution of 1:200; PPARγ: anti-caprine polyclonal antibody (Santa Cruz Bio. Inc.), at a dilution of 1:500. The specific procedures were performed in accordance with the instructions of the ABC and SP kits, DAB was used for color development, and neutral resin was used for mounting. PBS was used instead of the first antibody as a negative control. Cells with positive expression of the test polypeptides were of brown-yellow color, with MMP-2 protein being present in acytoplasm, Bcl-2 expressed in nuclear membrane and cytoplasm, Bax mainly in cytoplasm and partially in nucleus, and caspase-3 mainly in nucleus and partially in cytoplasm. CMIAS image analysis system was used for random selection of fields of slices and automatic selection of sites for analysis, and statistic analysis was performed by using mean optical density values or integral optical density values of the obtained myocardial tissue slices.

Another test deals with MMP-2. In words: Immunohistochemistry protein expression in I/R myocardial tissue: MMP-2. The note with it: for MMP-2 protein expression, OD value: 5 days, ischemia 30 min, reperfusion 2 h. How it is done: as §1, §2
Test [1] relates to rats with acute myocardial ischemia. In words: Area of myocardial infarction in rats with acute myocardial ischemia (coronary artery ligation). The note with it: 24 h after coronary artery ligation. The method, then:
At 0.5 h after the rats of these groups were administered intragastrically, the standard II lead electrocardiogram (before modeling) was recorded, and the height of ST-T segment was measured. The rats of sham operation group were then subjected to coronary artery braid without ligation, and the rats of other groups were subjected to coronary artery ligation in accordance with the following method to establish cute myocardial ischemia models. The rats were subjected to etherization, fixed at supine position, and their normal electrocardiograms (before modeling) were recorded. The skin of left thorax was incised under aseptic conditions, the 4th intercostal muscles were isolated in blunt way, the heart was extruded by light pressure to the right thorax, the left anterior descending coronary artery was ligated at a position 2˜3 mm departing from the left coronary artery origin and between the pulmonary conus and the left auricle of heart, then the heart was sent back to thorax cavity immediately and sutured the incision. Penicillin was smeared topically for the prevention of infections. After operation, the electrocardiogram of postischemia was recorded immediately (at 0 min after modeling), and the height of ST-T segment was measured.

`CC1(C)C2CCC1(C)C(OC(=O)C(O)Cc1ccc(O)c(O)c1)C2` (stereo not drawn) [bornyl salvianate ester, bornyl β-(3,4-dihydroxylphenyl)-α-hydroxylpropionate ester]: the “Bcl-2 protein expression, OD value” in the test with Bcl-2 (5 mg/kg ip) worked out at 0.15 ± 0.03; with Bcl-2 (15 mg/kg ip), 0.15 ± 0.06; in the test on Bcl-2 (35 mg/kg ip), 0.21 ± 0.04. Further, the “expression of Bcl-2 protein (in words)” value in the test with Bcl-2 (myocardial cells I/R) is “increase the expression of Bcl-2 protein”. Besides, the “MMP-2 protein expression, OD value” with MMP-2 (5 mg/kg ip) is listed as 0.14 ± 0.05; in the test with MMP-2 (15 mg/kg ip), 0.14 ± 0.03; with MMP-2 (35 mg/kg ip), 0.11 ± 0.03. For the same molecule, the “MMP-2 protein (in words)” value in the test on MMP-2 (myocardial I/R) is “decrease of MMP-2 protein”. Moreover, the Infarct region weight in test [1] (10 mg/kg intragastric) was determined as 0.20 ± 0.05 g; in test [1] (20 mg/kg intragastric) it was 0.18 ± 0.05 g; in test [1] (40 mg/kg intragastric), 0.18 ± 0.04 g. For the same molecule, the Non-infarct region weight in test [1] (10 mg/kg intragastric) is reported as 0.47 ± 0.07 g; in test [1] (20 mg/kg intragastric) it was 0.49 ± 0.09 g; in test [1] (40 mg/kg intragastric), 0.45 ± 0.06 g. Moreover, the “Percentage (infarct cardiac muscles of whole ventricle, by weight)” value in test [1] (10 mg/kg intragastric) worked out at 30.09 ± 5.69%; in test [1] (20 mg/kg intragastric), 25.73 ± 6.35 %; in test [1] (40 mg/kg intragastric), 28.95 ± 5.57 %. The Ventricle weight in test [1] (10 mg/kg intragastric) stood at 0.68 ± 0.09 g; in test [1] (20 mg/kg intragastric), 0.68 ± 0.08 g; in test [1] (40 mg/kg intragastric) it was 0.63 ± 0.07 g.
